From patent US9927423B2, “LRRC8 proteins and protein complexes and methods for identification of channel modulators” (MAX-DELBRUECK-CENTRUM FUER MOLEKULARE MEDIZIN, priority 2014, dated 2018)

Tests used:
VRAC [1] = target: T1, VRAC (Homo sapiens, UniProt Q8IWT6); assay: FLIPR YFP-quenching assay: hypotonicity-induced iodide influx into HEK cells expressing YFP(H148Q/I152L); assay type: cell-based; parameters: Swelling-induced iodide influx into HEK cells, which display typical ICl(swell) currents; endogenous in cells; host or cells: HEK293: a clone inducibly expressing YFP(H148Q/I152L) in A1, and HEK cells in A2; settings: hypotonic saline with 50 mM iodide, inhibitor included in the iodide-containing solution
T1 sequence (Q8IWT6 1-810): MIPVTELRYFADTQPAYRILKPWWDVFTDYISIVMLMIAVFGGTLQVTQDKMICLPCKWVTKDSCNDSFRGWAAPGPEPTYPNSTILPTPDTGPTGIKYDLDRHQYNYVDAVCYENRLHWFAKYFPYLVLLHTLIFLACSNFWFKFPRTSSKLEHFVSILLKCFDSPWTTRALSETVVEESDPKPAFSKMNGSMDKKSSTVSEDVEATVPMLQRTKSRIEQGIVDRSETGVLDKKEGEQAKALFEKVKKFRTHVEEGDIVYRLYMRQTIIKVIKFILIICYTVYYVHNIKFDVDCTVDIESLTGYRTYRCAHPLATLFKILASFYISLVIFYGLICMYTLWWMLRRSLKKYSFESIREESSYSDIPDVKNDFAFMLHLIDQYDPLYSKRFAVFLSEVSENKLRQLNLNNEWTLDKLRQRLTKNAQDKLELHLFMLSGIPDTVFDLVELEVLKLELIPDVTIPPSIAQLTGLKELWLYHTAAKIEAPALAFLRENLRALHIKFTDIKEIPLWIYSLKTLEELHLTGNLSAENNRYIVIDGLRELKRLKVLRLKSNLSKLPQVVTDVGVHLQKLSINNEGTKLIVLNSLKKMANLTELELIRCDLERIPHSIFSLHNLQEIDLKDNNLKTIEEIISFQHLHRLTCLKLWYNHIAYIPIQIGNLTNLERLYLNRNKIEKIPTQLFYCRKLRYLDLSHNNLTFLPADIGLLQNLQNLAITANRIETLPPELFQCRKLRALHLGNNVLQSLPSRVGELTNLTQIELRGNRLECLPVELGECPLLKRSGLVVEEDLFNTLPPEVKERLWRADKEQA
Text: To identify VRAC we opted for a genome-wide RNA interference screen that could identify non-redundant VRAC components even if the channel were a heteromer. Swelling-induced iodide influx into HEK cells, which display typical ICl(swell) currents (Nilius et al., 2001, Hernandez-Carballo et al.), was used as readout (FIG. 1A). We generated a clonal HEK cell line expressing a yellow fluorescent protein variant YFP(H148Q/I152L) whose fluorescence is efficiently quenched by iodide (Galietta et al.). The assay used the FLIPR™ fluorometric imaging plate reader system which allows parallel pipetting and continuous fluorescence measurements of all wells. The solution covering the cells was exchanged to a hypotonic or isotonic (control) saline containing 50 mM iodide and YFP fluorescence was followed over time (FIG. 1B). Compatible with a background permeation pathway for I^− the fluorescence decayed slowly in I^−-containing isotonic control solution. […]
The YFP-quenching assay was performed 72 h post-transfection. After having exchanged the cell culture medium in all wells of the plate with 10 μl of isotonic solution (in mM: 145 NaCl, 5 KCl, 1 MgCl2, 2 CaCl2, 10 glucose, 10 HEPES pH 7.4, 329 mOsm) in a Tecan Freedom EVO 200 workstation, the plates were transferred into the FLIPR™ (Molecular Devices) High Throughput Cellular Screening Device and fluorescence measurements were initiated. […]

Ras-transformed cells = Ras-transformed cells compared to WT cells; cited from earlier work
VRAC [2] = target: T1, VRAC; parameters: host or cells: human epidermis cancer cells; settings: human epidermis cancer cells; cited from earlier work

Compound | inhibition of hypotonicity-induced decrease in YFP fluorescence (quenching by iodide) (VRAC [1]) | other results
CCCCC1(C2CCCC2)Cc2cc(OCCCC(=O)O)c(Cl)c(Cl)c2C1=O (stereo not shown) [DCPIB] | partially inhibited | 
O=C(Nc1cc(C(F)(F)F)cc(C(F)(F)F)c1)Nc1ccc(Br)cc1-c1nnn[nH]1 [NS3728] |  | inhibition of cell migration (Ras-transformed cells): inhibit cell migration more strongly in Ras-transformed cells compared to WT cells
CC1(C)[C@@H](OC(=O)CCC(=O)O)CC[C@]2(C)[C@H]3C(=O)C=C4[C@@H]5C[C@@](C)(C(=O)O)CC[C@]5(C)CC[C@@]4(C)[C@]3(C)CC[C@@H]12 [carbenoxolone] | partially inhibited | 
N.N.[Cl][Pt][Cl] [cisplatin] |  | effect on VRAC (VRAC [2]): activate VRAC
